Numbers after ± are expanded uncertainties.
Experiment: xn = mol fraction of the nth substance listed
Conditions: 101 kPa, Liquid, Vibrating tube method

OCc1ccccn1 [α-picolyl alcohol] + O
mass density [kg/m3]
Conditions	293.15 K	298.15 K	303.15 K	308.15 K	313.15 K	318.15 K
x1 = 0.05	1033.4 ± 1	1031.7 ± 1	1029.2 ± 1	1027.6 ± 1	1024.4 ± 1	1021.6 ± 1
x1 = 0.15	1077.3 ± 1	1074.4 ± 1	1071 ± 1	1067.6 ± 1	1064.5 ± 1	1061.1 ± 1
x1 = 0.2	1088.5 ± 1	1085 ± 1	1080.9 ± 1	1076.8 ± 1	1073.1 ± 1	1069.3 ± 1
x1 = 0.25	1098.1 ± 1	1094 ± 1	1089.6 ± 1	1085.5 ± 1	1081.6 ± 1	1077.8 ± 1
x1 = 0.3	1106.3 ± 1	1102.9 ± 1	1098.9 ± 1	1095.1 ± 1	1091.5 ± 1	1087.9 ± 1
x1 = 0.35	1112 ± 1	1107.9 ± 1.1	1103.4 ± 1	1099.3 ± 1	1095.4 ± 1	1091.4 ± 1
x1 = 0.4	1116 ± 1.1	1111.7 ± 1.1	1106.7 ± 1.1	1102.3 ± 1.1	1098.2 ± 1.1	1094.5 ± 1.1
x1 = 0.45	1119.8 ± 1.1	1116.2 ± 1.1	1111.9 ± 1.1	1107.4 ± 1.1	1103.6 ± 1.1	1099.8 ± 1.1
x1 = 0.5	1122.4 ± 1.2	1118.9 ± 1.2	1114.7 ± 1.2	1110.8 ± 1.2	1107 ± 1.2	1103.2 ± 1.2
x1 = 0.55	1124.4 ± 1.2	1120.7 ± 1.2	1116.3 ± 1.2	1112.2 ± 1.2	1108.3 ± 1.2	1104.5 ± 1.2
x1 = 0.6	1125.7 ± 1.3	1122.1 ± 1.3	1117.9 ± 1.3	1113.9 ± 1.3	1110 ± 1.3	1106.3 ± 1.3
x1 = 0.65	1127.5 ± 1.4	1123.9 ± 1.4	1119.8 ± 1.4	1115.9 ± 1.4	1112.1 ± 1.4	1108.4 ± 1.4
x1 = 0.7	1128.4 ± 1.5	1124.8 ± 1.5	1120.7 ± 1.5	1116.9 ± 1.5	1113.1 ± 1.5	1109.5 ± 1.5
x1 = 0.75	1129.3 ± 1.6	1125.8 ± 1.6	1121.7 ± 1.6	1117.7 ± 1.6	1114.1 ± 1.6	1110.4 ± 1.6
x1 = 0.8	1130.2 ± 1.8	1126.7 ± 1.7	1122.6 ± 1.7	1118.7 ± 1.7	1115 ± 1.7	1111.2 ± 1.7
x1 = 0.9	1131.5 ± 2.1	1127.9 ± 2.1	1123.9 ± 2.1	1119.8 ± 2	1116.1 ± 2	1112.4 ± 2
x1 = 0.95	1131.9 ± 2.3	1128.3 ± 2.2	1124.3 ± 2.2	1120.3 ± 2.2	1116.6 ± 2.2	1112.9 ± 2.2
x1 = 1	1132.3 ± 2.5	1128.8 ± 2.4	1124.7 ± 2.4	1120.7 ± 2.4	1116.9 ± 2.4	1113.3 ± 2.4

OCc1cccnc1 [β-picolyl alcohol] + O
mass density [kg/m3]
Conditions	293.15 K	298.15 K	303.15 K	308.15 K	313.15 K	318.15 K
x1 = 0.05	1032.8 ± 0.2	1031.1 ± 0.2	1028.7 ± 0.2	1026.3 ± 0.2	1024.1 ± 0.2	1021.8 ± 0.2
x1 = 0.1	1056.5 ± 0.2	1054 ± 0.2	1051.1 ± 0.2	1048.2 ± 0.2	1045.5 ± 0.2	1042.8 ± 0.2
x1 = 0.15	1074.5 ± 0.2	1071.9 ± 0.2	1068.7 ± 0.2	1065.5 ± 0.2	1062.5 ± 0.2	1059.5 ± 0.2
x1 = 0.2	1089.7 ± 0.2	1086.6 ± 0.2	1083.2 ± 0.2	1079.8 ± 0.2	1076.6 ± 0.2	1073.3 ± 0.2
x1 = 0.25	1098 ± 1	1095 ± 0.3	1091.4 ± 0.3	1088 ± 1	1084.7 ± 0.3	1081.4 ± 0.3
x1 = 0.3	1106.6 ± 0.3	1103.4 ± 0.3	1099.7 ± 0.3	1096.2 ± 0.3	1092.8 ± 0.3	1089.5 ± 0.3
x1 = 0.35	1111.4 ± 0.4	1108.1 ± 0.4	1104.4 ± 0.4	1100.8 ± 0.4	1097.4 ± 0.4	1094 ± 1
x1 = 0.4	1117 ± 1	1113.7 ± 0.5	1109.9 ± 0.5	1106.3 ± 0.5	1103 ± 1	1099.4 ± 0.5
x1 = 0.45	1120.5 ± 0.6	1117.2 ± 0.6	1113.5 ± 0.6	1109.7 ± 0.6	1106.4 ± 0.6	1102.9 ± 0.6
x1 = 0.5	1123.5 ± 0.7	1120.3 ± 0.7	1116.5 ± 0.7	1112.8 ± 0.7	1109.4 ± 0.7	1106 ± 0.7
x1 = 0.55	1125.9 ± 0.9	1122.4 ± 0.8	1118.6 ± 0.8	1114.9 ± 0.8	1111.6 ± 0.8	1108.2 ± 0.8
x1 = 0.6	1128 ± 1	1124.7 ± 1	1120.8 ± 1	1117.3 ± 1	1113.8 ± 1	1110.4 ± 1
x1 = 0.65	1129.7 ± 1.1	1126.4 ± 1.1	1122.5 ± 1.1	1118.9 ± 1.1	1115.5 ± 1.1	1112.1 ± 1.1
x1 = 0.7	1131.1 ± 1.3	1127.8 ± 1.3	1123.9 ± 1.3	1120.3 ± 1.3	1116.9 ± 1.3	1113.5 ± 1.2
x1 = 0.75	1132.3 ± 1.5	1129 ± 2	1125.2 ± 1.4	1121.6 ± 1.4	1118.1 ± 1.4	1114.7 ± 1.4
x1 = 0.8	1133.5 ± 1.6	1130.1 ± 1.6	1126.3 ± 1.6	1122.7 ± 1.6	1119.3 ± 1.6	1115.9 ± 1.6
x1 = 0.85	1134.5 ± 1.8	1131.2 ± 1.8	1127.4 ± 1.8	1123.7 ± 1.8	1120.3 ± 1.8	1116.9 ± 1.8
x1 = 0.9	1135.2 ± 2	1131.8 ± 2	1128.1 ± 2	1124.5 ± 2	1121.1 ± 2	1117.7 ± 2
x1 = 0.95	1136.1 ± 2.3	1132.7 ± 2.2	1128.9 ± 2.2	1125.3 ± 2.2	1122 ± 2	1118.6 ± 2.2
x1 = 1	1136.8 ± 2.5	1133.5 ± 2.5	1129.6 ± 2.4	1125.9 ± 2.4	1122.6 ± 2.4	1119.3 ± 2.4

Reference: the NIST ThermoML archive (doi:10.1016/j.fluid.2012.10.024)
